In ChEMBL document CHEMBL4130431, “Synthesis and Evaluation of Dolastatin 10 Analogues Containing Heteroatoms on the Amino Acid Side Chains” (2017) one finds GI50 and inhibition data, which are given here for 28 compounds.

The subject of one experiment is HCC1954. The experiment can be described thus: Growth inhibition of human HCC1954 cells after 4 to 6 days by Presto blue assay. The format is functional.
The subject of a further experiment is PC-3. The experiment can be described thus: Growth inhibition of human PC3 cells after 4 to 6 days by Presto blue assay. Type of experiment: functional.
The species entered for a further experiment is Bos taurus. The experiment can be described thus: Inhibition of bovine brain tubulin polymerization at 10 uM after 60 mins by spectrophotometric method.

The source made the active and inactive calls. The calls are words filed in the database; no cut-off is given here. Non-standard residues stand in square brackets, D forms with d. Residues, ends and D or L forms follow the SMILES beside them. *: point of attachment. Dolaproine = CO[C@@H]([C@@H]1CCCN1)[C@@H](C)C(=O)O; Abu(3S-N3) = C[C@H](N=[N+]=[N-])[C@H](N)C(=O)O; Dil = CC[C@H](C)[C@H](NC)[C@@H](CC(=O)O)OC; Abu(3S-NH2) = C[C@H](N)[C@H](N)C(=O)O; Dap(N3) = [N-]=[N+]=NC[C@H](N)C(=O)O; NMe2Val = CC(C)[C@@H](C(=O)*)N(C)C; Aha = [N-]=[N+]=NCC[C@H](N)C(=O)O; Pra = C#CC[C@H](N)C(=O)O; Dab = NCC[C@H](N)C(=O)O; Dap = NC[C@H](N)C(=O)O; NHtBu = CC(C)(C)N*; OtBu = CC(C)(C)O* Bounds are passed on as bounds.

One may read the GI50 as the concentration that inhibits growth by half. The compound `CC[C@H](C)[C@@H]([C@@H](CC(=O)N1CCC[C@H]1[C@H](OC)[C@@H](C)C(=O)NCCc1ccccn1)OC)N(C)C(=O)[C@@H](NC(=O)[C@H](C(C)C)N(C)C)[C@@H](C)O` displayed a 50% growth inhibitory concentration (GI50) with HCC1954 of 21 nM.

For the compound `CC[C@H](C)[C@@H]([C@@H](CC(=O)N1CCC[C@H]1[C@H](OC)[C@@H](C)C(=O)N[C@H](C)[C@@H](O)c1ccccc1)OC)N(C)C(=O)[C@@H](NC(=O)[C@H](C(C)C)N(C)C)[C@H](C)N=[N+]=[N-]`, the concentration for 50% growth inhibition (GI50) with HCC1954 worked out at 34 nM; in the experiment with PC-3 it was 50 nM.

For `CC[C@H](C)[C@@H]([C@@H](CC(=O)N1CCC[C@H]1[C@H](OC)[C@@H](C)C(=O)N[C@@H](Cc1ccccc1)c1nnn[nH]1)OC)N(C)C(=O)[C@@H](NC(=O)[C@H](C(C)C)N(C)C)[C@H](C)N=[N+]=[N-]`, the inhibition entry in the experiment listed under Bos taurus is “Active”. For the same compound, the concentration for 50% growth inhibition (GI50) was determined as 27 nM in the experiment on HCC1954 and 41 nM in the experiment on PC-3.

Take `CC[C@H](C)[C@@H]([C@@H](CC(=O)N1CCC[C@H]1[C@H](OC)[C@@H](C)C(=O)NCCc1ccccc1Cl)OC)N(C)C(=O)[C@@H](NC(=O)[C@H](C(C)C)N(C)C)[C@H](C)N=[N+]=[N-]`: the 50% growth inhibitory concentration (GI50) in the experiment with HCC1954 came to 13 nM; with PC-3, 34 nM.

`CC[C@H](C)[C@@H]([C@@H](CC(=O)N1CCC[C@H]1[C@H](OC)[C@@H](C)C(=O)NCCc1ccccc1)OC)N(C)C(=O)[C@@H](NC(=O)[C@H](C(C)C)N(C)C)[C@H](C)N=[N+]=[N-]`: the GI50 in the experiment with HCC1954 worked out at 3.1 nM; with PC-3 it was 4.7 nM.

On to `CC[C@H](C)[C@@H]([C@@H](CC(=O)N1CCC[C@H]1[C@H](OC)[C@@H](C)C(=O)NCCc1ccccn1)OC)N(C)C(=O)[C@@H](NC(=O)[C@H](C(C)C)N(C)C)[C@H](C)N=[N+]=[N-]`, for which the GI50 with HCC1954 was 3.7 nM; with PC-3, 5.1 nM.

Turning to `CC[C@H](C)[C@@H]([C@@H](CC(=O)N1CCC[C@H]1[C@H](OC)[C@@H](C)C(=O)NCCc1ccc(Cl)cc1)OC)N(C)C(=O)[C@@H](NC(=O)[C@H](C(C)C)N(C)C)[C@H](C)N=[N+]=[N-]`, the GI50 in the experiment on HCC1954 is 33 nM; in the experiment on PC-3 it was 40 nM.

As to `CC[C@H](C)[C@@H]([C@@H](CC(=O)N1CCC[C@H]1[C@H](OC)[C@@H](C)C(=O)N[C@@H](Cc1ccccc1)c1nccs1)OC)N(C)C(=O)[C@@H](NC(=O)[C@H](C(C)C)N(C)C)[C@H](C)N=[N+]=[N-]`, in the experiment listed under Bos taurus, the inhibition result was “Active”. For the same compound, the 50% growth inhibitory concentration (GI50) is 18 nM in the experiment with HCC1954 and 33 nM in the experiment on PC-3.

Take `CC[C@H](C)[C@@H]([C@@H](CC(=O)N1CCC[C@H]1[C@H](OC)[C@@H](C)C(=O)NCCc1ccccn1)OC)N(C)C(=O)[C@H](CO)NC(=O)[C@H](C(C)C)N(C)C`: the GI50 with HCC1954 and in the experiment on PC-3 was above 1000 nM throughout.

For `CC[C@H](C)[C@@H]([C@@H](CC(=O)N1CCC[C@H]1[C@H](OC)[C@@H](C)C(=O)N[C@@H](Cc1ccccc1)C(=O)OC)OC)N(C)C(=O)[C@H](CS)NC(=O)[C@H](C(C)C)N(C)C` (NMe2Val-C[Dil][Dolaproine]F-OMe), the results for the GI50 in the experiment on HCC1954 and with PC-3 were 3.2 nM and 3.8 nM, respectively.

For `CC[C@H](C)[C@@H]([C@@H](CC(=O)N1CCC[C@H]1[C@H](OC)[C@@H](C)C(=O)N[C@@H](Cc1ccccc1)C(=O)OC)OC)N(C)C(=O)[C@H](CC(=O)O)NC(=O)[C@H](C(C)C)N(C)C` (NMe2Val-D[Dil][Dolaproine]F-OMe), the 50% growth inhibitory concentration (GI50) in the experiment with HCC1954 was above 1000 nM; in the experiment with PC-3, 610 nM.

In turn, `CC[C@H](C)[C@@H]([C@@H](CC(=O)N1CCC[C@H]1[C@H](OC)[C@@H](C)C(=O)N[C@@H](Cc1ccccc1)C(=O)OC)OC)N(C)C(=O)[C@H](CCCCN)NC(=O)[C@H](C(C)C)N(C)C` (NMe2Val-K[Dil][Dolaproine]F-OMe) yielded a GI50 with HCC1954 of 340 nM.

As to `CC[C@H](C)[C@@H]([C@@H](CC(=O)N1CCC[C@H]1[C@H](OC)[C@@H](C)C(=O)N[C@@H](Cc1ccccc1)C(=O)O)OC)N(C)C(=O)[C@H](CO)NC(=O)[C@H](C(C)C)N(C)C` (NMe2Val-S[Dil][Dolaproine]F-OH), the GI50 amounted to 4.4 nM in the experiment on HCC1954 and 19 nM in the experiment with PC-3.

`CC[C@H](C)[C@@H]([C@@H](CC(=O)N1CCC[C@H]1[C@H](OC)[C@@H](C)C(=O)N[C@@H](Cc1ccccc1)C(=O)OC)OC)N(C)C(=O)[C@H](CO)NC(=O)[C@H](C(C)C)N(C)C` (NMe2Val-S[Dil][Dolaproine]F-OMe): the results for the GI50 with HCC1954 and with PC-3 were 0.34 nM and 1.2 nM, respectively.

With `CC[C@H](C)[C@@H]([C@@H](CC(=O)N1CCC[C@H]1[C@H](OC)[C@@H](C)C(=O)N[C@@H](Cc1ccccc1)C(=O)O)OC)N(C)C(=O)[C@@H](NC(=O)[C@H](C(C)C)N(C)C)[C@@H](C)O` (NMe2Val-T[Dil][Dolaproine]F-OH), the GI50 in the experiment on HCC1954 turned out to be 3.5 nM; in the experiment on PC-3 it was 5 nM.

For `CC[C@H](C)[C@@H]([C@@H](CC(=O)N1CCC[C@H]1[C@H](OC)[C@@H](C)C(=O)N[C@@H](Cc1ccccc1)C(=O)OC)OC)N(C)C(=O)[C@@H](NC(=O)[C@H](C(C)C)N(C)C)[C@@H](C)O` (NMe2Val-T[Dil][Dolaproine]F-OMe), the GI50 was determined as 0.16 nM in the experiment with HCC1954 and 0.38 nM in the experiment on PC-3.

Take `CC[C@H](C)[C@@H]([C@@H](CC(=O)N1CCC[C@H]1[C@H](OC)[C@@H](C)C(=O)N[C@@H](Cc1ccccc1)C(N)=O)OC)N(C)C(=O)[C@@H](NC(=O)[C@H](C(C)C)N(C)C)[C@H](C)N=[N+]=[N-]` (NMe2Val-[Abu(3S-N3)][Dil][Dolaproine]F-NH2): the GI50 in the experiment with HCC1954 came to 0.4 nM; with PC-3, 1.7 nM.

`CC[C@H](C)[C@@H]([C@@H](CC(=O)N1CCC[C@H]1[C@H](OC)[C@@H](C)C(=O)N[C@@H](Cc1ccccc1)C(=O)NC(C)(C)C)OC)N(C)C(=O)[C@@H](NC(=O)[C@H](C(C)C)N(C)C)[C@H](C)N=[N+]=[N-]` (NMe2Val-[Abu(3S-N3)][Dil][Dolaproine]F-NHtBu): the figures for the 50% growth inhibitory concentration (GI50) in the experiment on HCC1954 and in the experiment on PC-3 were 0.4 nM and 1.2 nM, respectively.

With `CC[C@H](C)[C@@H]([C@@H](CC(=O)N1CCC[C@H]1[C@H](OC)[C@@H](C)C(=O)N[C@@H](Cc1ccccc1)C(=O)O)OC)N(C)C(=O)[C@@H](NC(=O)[C@H](C(C)C)N(C)C)[C@H](C)N=[N+]=[N-]` (NMe2Val-[Abu(3S-N3)][Dil][Dolaproine]F-OH), the GI50 with HCC1954 and with PC-3 was above 1000 nM in each case.

With `CC[C@H](C)[C@@H]([C@@H](CC(=O)N1CCC[C@H]1[C@H](OC)[C@@H](C)C(=O)N[C@@H](Cc1ccccc1)C(=O)OC)OC)N(C)C(=O)[C@@H](NC(=O)[C@H](C(C)C)N(C)C)[C@H](C)N=[N+]=[N-]` (NMe2Val-[Abu(3S-N3)][Dil][Dolaproine]F-OMe), the 50% growth inhibitory concentration (GI50) with HCC1954 came out at 0.041 nM; in the experiment on PC-3 it was 0.093 nM.

As for `CC[C@H](C)[C@@H]([C@@H](CC(=O)N1CCC[C@H]1[C@H](OC)[C@@H](C)C(=O)N[C@@H](Cc1ccccc1)C(=O)OC(C)(C)C)OC)N(C)C(=O)[C@@H](NC(=O)[C@H](C(C)C)N(C)C)[C@H](C)N=[N+]=[N-]` (NMe2Val-[Abu(3S-N3)][Dil][Dolaproine]F-OtBu), the 50% growth inhibitory concentration (GI50) with HCC1954 was determined as 0.089 nM; in the experiment on PC-3 it was 0.045 nM.

As for `CC[C@H](C)[C@@H]([C@@H](CC(=O)N1CCC[C@H]1[C@H](OC)[C@@H](C)C(=O)N[C@@H](Cc1ccccc1)C(=O)O)OC)N(C)C(=O)[C@@H](NC(=O)[C@H](C(C)C)N(C)C)[C@H](C)N` (NMe2Val-[Abu(3S-NH2)][Dil][Dolaproine]F-OH), the concentration for 50% growth inhibition (GI50) amounted to 2.5 nM in the experiment with HCC1954 and 11 nM with PC-3.

On to `CC[C@H](C)[C@@H]([C@@H](CC(=O)N1CCC[C@H]1[C@H](OC)[C@@H](C)C(=O)N[C@@H](Cc1ccccc1)C(=O)OC)OC)N(C)C(=O)[C@@H](NC(=O)[C@H](C(C)C)N(C)C)[C@H](C)N` (NMe2Val-[Abu(3S-NH2)][Dil][Dolaproine]F-OMe), for which the concentration for 50% growth inhibition (GI50) stood at 0.076 nM in the experiment with HCC1954 and 0.54 nM in the experiment with PC-3.

Take `CC[C@H](C)[C@@H]([C@@H](CC(=O)N1CCC[C@H]1[C@H](OC)[C@@H](C)C(=O)N[C@@H](Cc1ccccc1)C(=O)OC)OC)N(C)C(=O)[C@H](CCN=[N+]=[N-])NC(=O)[C@H](C(C)C)N(C)C` (NMe2Val-[Aha][Dil][Dolaproine]F-OMe): the GI50 with HCC1954 was 0.43 nM; with PC-3, 1.1 nM.

On to `CC[C@H](C)[C@@H]([C@@H](CC(=O)N1CCC[C@H]1[C@H](OC)[C@@H](C)C(=O)N[C@@H](Cc1ccccc1)C(=O)OC)OC)N(C)C(=O)[C@H](CCN)NC(=O)[C@H](C(C)C)N(C)C` (NMe2Val-[Dab][Dil][Dolaproine]F-OMe), for which the GI50 in the experiment on HCC1954 and with PC-3 was above 1000 nM throughout.

For `CC[C@H](C)[C@@H]([C@@H](CC(=O)N1CCC[C@H]1[C@H](OC)[C@@H](C)C(=O)N[C@@H](Cc1ccccc1)C(=O)OC)OC)N(C)C(=O)[C@H](CN=[N+]=[N-])NC(=O)[C@H](C(C)C)N(C)C` (NMe2Val-[Dap(N3)][Dil][Dolaproine]F-OMe), the 50% growth inhibitory concentration (GI50) was 0.036 nM with HCC1954 and 0.11 nM in the experiment on PC-3.

Regarding `CC[C@H](C)[C@@H]([C@@H](CC(=O)N1CCC[C@H]1[C@H](OC)[C@@H](C)C(=O)N[C@@H](Cc1ccccc1)C(=O)OC)OC)N(C)C(=O)[C@H](CN)NC(=O)[C@H](C(C)C)N(C)C` (NMe2Val-[Dap][Dil][Dolaproine]F-OMe), the GI50 in the experiment on HCC1954 came to 3.5 nM; in the experiment with PC-3, 20 nM.

Turning to `C#CC[C@H](NC(=O)[C@H](C(C)C)N(C)C)C(=O)N(C)[C@@H]([C@@H](C)CC)[C@@H](CC(=O)N1CCC[C@H]1[C@H](OC)[C@@H](C)C(=O)N[C@@H](Cc1ccccc1)C(=O)OC)OC` (NMe2Val-[Pra][Dil][Dolaproine]F-OMe), the figures for the concentration for 50% growth inhibition (GI50) with HCC1954 and in the experiment with PC-3 were 0.16 nM and 0.36 nM, respectively.
